In ChEMBL document CHEMBL1150401, “Genotoxicity of alpha-asarone analogues” (Bioorg Med Chem, 2008):

Experiments:
Salmonella typhimurium [1] = test: Mutagenic activity in Salmonella Typhimurium TA97 assessed as number of his+ revertants at 100 ug/plate after 48 to 72 hrs by Ames test in absence of S9 fraction; type: toxicity, organism-based; settings: salmonella enterica subsp. enterica serovar typhimurium
Salmonella typhimurium [2] = test: Mutagenic activity in Salmonella Typhimurium TA97 assessed as number of his+ revertants at 100 ug/plate after 48 to 72 hrs by Ames test in presence of S9 fraction; type: toxicity, organism-based; settings: salmonella enterica subsp. enterica serovar typhimurium
Salmonella typhimurium [3] = test: Mutagenic activity in Salmonella Typhimurium TA97 assessed as number of his+ revertants at 500 ug/plate after 48 to 72 hrs by Ames test in absence of S9 fraction; type: toxicity, organism-based; settings: salmonella enterica subsp. enterica serovar typhimurium
Salmonella typhimurium [4] = test: Mutagenic activity in Salmonella Typhimurium TA97 assessed as number of his+ revertants at 500 ug/plate after 48 to 72 hrs by Ames test in presence of S9 fraction; type: toxicity, organism-based; settings: salmonella enterica subsp. enterica serovar typhimurium
Salmonella typhimurium [5] = test: Mutagenic activity in Salmonella Typhimurium TA97 assessed as number of his+ revertants at 1000 ug/plate after 48 to 72 hrs by Ames test in absence of S9 fraction; type: toxicity, organism-based; settings: salmonella enterica subsp. enterica serovar typhimurium
Salmonella typhimurium [6] = test: Mutagenic activity in Salmonella Typhimurium TA97 assessed as number of his+ revertants at 1000 ug/plate after 48 to 72 hrs by Ames test in presence of S9 fraction; type: toxicity, organism-based; settings: salmonella enterica subsp. enterica serovar typhimurium
Salmonella typhimurium [7] = test: Mutagenic activity in Salmonella Typhimurium TA98 assessed as number of his+ revertants at 100 ug/plate after 48 to 72 hrs by Ames test in absence of S9 fraction; type: toxicity, organism-based; settings: salmonella enterica subsp. enterica serovar typhimurium
Salmonella typhimurium [8] = test: Mutagenic activity in Salmonella Typhimurium TA98 assessed as number of his+ revertants at 100 ug/plate after 48 to 72 hrs by Ames test in presence of S9 fraction; type: toxicity, organism-based; settings: salmonella enterica subsp. enterica serovar typhimurium
Salmonella typhimurium [9] = test: Mutagenic activity in Salmonella Typhimurium TA98 assessed as number of his+ revertants at 500 ug/plate after 48 to 72 hrs by Ames test in absence of S9 fraction; type: toxicity, organism-based; settings: salmonella enterica subsp. enterica serovar typhimurium
Salmonella typhimurium [10] = test: Mutagenic activity in Salmonella Typhimurium TA98 assessed as number of his+ revertants at 500 ug/plate after 48 to 72 hrs by Ames test in presence of S9 fraction; type: toxicity, organism-based; settings: salmonella enterica subsp. enterica serovar typhimurium
Salmonella typhimurium [11] = test: Mutagenic activity in Salmonella Typhimurium TA98 assessed as number of his+ revertants at 1000 ug/plate after 48 to 72 hrs by Ames test in absence of S9 fraction; type: toxicity, organism-based; settings: salmonella enterica subsp. enterica serovar typhimurium
Salmonella typhimurium [12] = test: Mutagenic activity in Salmonella Typhimurium TA98 assessed as number of his+ revertants at 1000 ug/plate after 48 to 72 hrs by Ames test in presence of S9 fraction; type: toxicity, organism-based; settings: salmonella enterica subsp. enterica serovar typhimurium
Salmonella typhimurium [13] = test: Mutagenic activity in Salmonella Typhimurium TA100 assessed as number of his+ revertants at 100 ug/plate after 48 to 72 hrs by Ames test in absence of S9 fraction; type: toxicity, organism-based; settings: salmonella enterica subsp. enterica serovar typhimurium
Salmonella typhimurium [14] = test: Mutagenic activity in Salmonella Typhimurium TA100 assessed as number of his+ revertants at 100 ug/plate after 48 to 72 hrs by Ames test in presence of S9 fraction; type: toxicity, organism-based; settings: salmonella enterica subsp. enterica serovar typhimurium
Salmonella typhimurium [15] = test: Mutagenic activity in Salmonella Typhimurium TA100 assessed as number of his+ revertants at 500 ug/plate after 48 to 72 hrs by Ames test in absence of S9 fraction; type: toxicity, organism-based; settings: salmonella enterica subsp. enterica serovar typhimurium
Salmonella typhimurium [16] = test: Mutagenic activity in Salmonella Typhimurium TA100 assessed as number of his+ revertants at 500 ug/plate after 48 to 72 hrs by Ames test in presence of S9 fraction; type: toxicity, organism-based; settings: salmonella enterica subsp. enterica serovar typhimurium
Salmonella typhimurium [17] = test: Mutagenic activity in Salmonella Typhimurium TA100 assessed as number of his+ revertants at 1000 ug/plate after 48 to 72 hrs by Ames test in absence of S9 fraction; type: toxicity, organism-based; settings: salmonella enterica subsp. enterica serovar typhimurium
Salmonella typhimurium [18] = test: Mutagenic activity in Salmonella Typhimurium TA100 assessed as number of his+ revertants at 1000 ug/plate after 48 to 72 hrs by Ames test in presence of S9 fraction; type: toxicity, organism-based; settings: salmonella enterica subsp. enterica serovar typhimurium
Salmonella typhimurium [19] = test: Mutagenic activity in Salmonella Typhimurium TA102 assessed as number of his+ revertants at 100 ug/plate after 48 to 72 hrs by Ames test in absence of S9 fraction; type: toxicity, organism-based; settings: salmonella enterica subsp. enterica serovar typhimurium
Salmonella typhimurium [20] = test: Mutagenic activity in Salmonella Typhimurium TA102 assessed as number of his+ revertants at 100 ug/plate after 48 to 72 hrs by Ames test in presence of S9 fraction; type: toxicity, organism-based; settings: salmonella enterica subsp. enterica serovar typhimurium
Salmonella typhimurium [21] = test: Mutagenic activity in Salmonella Typhimurium TA102 assessed as number of his+ revertants at 500 ug/plate after 48 to 72 hrs by Ames test in absence of S9 fraction; type: toxicity, organism-based; settings: salmonella enterica subsp. enterica serovar typhimurium
Salmonella typhimurium [22] = test: Mutagenic activity in Salmonella Typhimurium TA102 assessed as number of his+ revertants at 500 ug/plate after 48 to 72 hrs by Ames test in presence of S9 fraction; type: toxicity, organism-based; settings: salmonella enterica subsp. enterica serovar typhimurium
Salmonella typhimurium [23] = test: Mutagenic activity in Salmonella Typhimurium TA102 assessed as number of his+ revertants at 1000 ug/plate after 48 to 72 hrs by Ames test in presence of S9 fraction; type: toxicity, organism-based; settings: salmonella enterica subsp. enterica serovar typhimurium
L929 = test: Genotoxicity against mouse L929 cells assessed as number of micronuclei at 100 ug/ml; type: toxicity, cell-based
Salmonella typhimurium [24] = test: Cytotoxicity against Salmonella Typhimurium TA102 assessed as reduction in his+ revertants after 48 to 72 hrs in presence of S9 fraction; type: functional, Salmonella enterica subsp. enterica serovar Typhimurium; parameters: scale not given: the % may be the effect or the level left
Salmonella typhimurium [25] = test: Cytotoxicity against Salmonella Typhimurium TA97 assessed as growth inhibition after 48 to 72 hrs; type: functional, Salmonella enterica subsp. enterica serovar Typhimurium; parameters: scale not given: the % may be the effect or the level left
Salmonella typhimurium [26] = test: Cytotoxicity against Salmonella Typhimurium TA100 assessed as growth inhibition after 48 to 72 hrs; type: functional, Salmonella enterica subsp. enterica serovar Typhimurium; parameters: scale not given: the % may be the effect or the level left
Salmonella typhimurium [27] = test: Cytotoxicity against Salmonella Typhimurium TA97 assessed as reduction in his+ revertants after 48 to 72 hrs in presence of S9 fraction; type: functional, Salmonella enterica subsp. enterica serovar Typhimurium; parameters: scale not given: the % may be the effect or the level left
Salmonella typhimurium [28] = test: Cytotoxicity against Salmonella Typhimurium TA98 assessed as reduction in his+ revertants after 48 to 72 hrs in presence of S9 fraction; type: functional, Salmonella enterica subsp. enterica serovar Typhimurium; parameters: scale not given: the % may be the effect or the level left
Salmonella typhimurium [29] = test: Cytotoxicity against Salmonella Typhimurium TA100 assessed as reduction in his+ revertants after 48 to 72 hrs in presence of S9 fraction; type: functional, Salmonella enterica subsp. enterica serovar Typhimurium; parameters: scale not given: the % may be the effect or the level left
Salmonella typhimurium [30] = test: Mutagenic activity in Salmonella Typhimurium TA102 assessed as number of his+ revertants at 1000 ug/plate after 48 to 72 hrs by Ames test in absence of S9 fraction; type: toxicity, organism-based; settings: salmonella enterica subsp. enterica serovar typhimurium
Salmonella typhimurium [31] = test: Cytotoxicity against Salmonella Typhimurium TA102 assessed as reduction in his+ revertants after 48 to 72 hrs in absence of S9 fraction; type: functional, Salmonella enterica subsp. enterica serovar Typhimurium; parameters: scale not given: the % may be the effect or the level left
Salmonella typhimurium [32] = test: Cytotoxicity against Salmonella Typhimurium TA102 assessed as growth inhibition oh his+ revertants after 48 to 72 hrs; type: functional, Salmonella enterica subsp. enterica serovar Typhimurium; parameters: scale not given: the % may be the effect or the level left

SMILES | Activity (Salmonella typhimurium [1]) | Activity (Salmonella typhimurium [2]) | Activity (Salmonella typhimurium [3]) | Activity (Salmonella typhimurium [4]) | Activity (Salmonella typhimurium [5]) | Activity (Salmonella typhimurium [6]) | Activity (Salmonella typhimurium [7]) | Activity (Salmonella typhimurium [8]) | Activity (Salmonella typhimurium [9]) | Activity (Salmonella typhimurium [10]) | Activity (Salmonella typhimurium [11]) | Activity (Salmonella typhimurium [12]) | Activity (Salmonella typhimurium [13]) | Activity (Salmonella typhimurium [14]) | Activity (Salmonella typhimurium [15]) | Activity (Salmonella typhimurium [16]) | Activity (Salmonella typhimurium [17]) | Activity (Salmonella typhimurium [18]) | Activity (Salmonella typhimurium [19]) | Activity (Salmonella typhimurium [20]) | other results
C/C=C/c1cc(OC)c(OC)c(OC)c1 | 109 | 194 | 88 | 164 | 73 | 155 | 30 | 30 | 24 | 18 | 32 | 15 | 109 | 119 | 88 | 108 | 73 | 87 | 241 | 281 | Activity (Salmonella typhimurium [21]): 155; Activity (Salmonella typhimurium [22]): 236; Activity (Salmonella typhimurium [23]): 165; Activity (L929): 1.74%; Activity (Salmonella typhimurium [24]): 22%; Activity (Salmonella typhimurium [25]): 59%; Activity (Salmonella typhimurium [26]): 44%; Activity (Salmonella typhimurium [27]): 22%; Activity (Salmonella typhimurium [28]): 22%; Activity (Salmonella typhimurium [29]): 22%
C/C=C/c1c(OC)ccc(OC)c1OC.CC(C)CCC[C@@H](C)[C@H]1CC[C@H]2[C@@H]3CC=C4C[C@@H](O)CC[C@]4(C)[C@H]3CC[C@]12C | 153 | 191 | 137 | 126 | 141 | 171 | 26 | 35 | 26 | 27 | 23 | 42 | 112 | 188 | 104 | 186 | 96 | 162 | 270 | 270 | Activity (Salmonella typhimurium [21]): 159; Activity (Salmonella typhimurium [22]): 162; Activity (Salmonella typhimurium [30]): 90; Activity (Salmonella typhimurium [23]): 49; Activity (L929): 1.61%; Activity (Salmonella typhimurium [31]): 43%; Activity (Salmonella typhimurium [24]): 46%; Activity (Salmonella typhimurium [32]): 28%
